Source: patent publication US11274097B2, “2-(het)aryl-substituted condensed bicyclic heterocycle derivatives as pest control agents” (BAYER CROPSCIENCE AKTIENGESELLSCHAFT, priority 2014, dated 2022)

Assays:
[1] = log P by HPLC on a reversed-phase column (C 18), EEC Directive 79/831 Annex V.A8; type: physicochemical; details: 55° C.
Procedure, shortened: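 Reversed-phase C18 HPLC at 55 °C, 10→95% acetonitrile linear gradient. log P (HCOOH) run at pH 2.7 with 0.1% formic acid; log P (neutral) at pH 7.8 with 0.001 M ammonium hydrogencarbonate. Calibrated by retention-time interpolation between unbranched C3–C16 alkan-2-ones of known log P.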

[2] = test system: Ctenocephalides felis; assay: Ctenocephalides felis oral test (CTECFE); type: in vivo; details: application rate 100 ppm; in citrated cattle blood; after 2 days
Experimental: Ctenocephalides felis-Oral Test ([…]) Solvent: dimethyl sulphoxide For the purpose of producing an appropriate active ingredient formulation, 10 mg of active ingredient are mixed with 0.5 ml of dimethyl sulphoxide. Dilution with citrated cattle blood gives the desired concentration. About 20 unfed adult cat fleas (Ctenocephalides felis) are placed into a chamber which is closed at the top and bottom with gauze. A metal cylinder whose bottom end is closed with parafilm is placed onto the chamber. The cylinder contains the blood/active ingredient preparation, which can be imbibed by the fleas through the parafilm membrane. After 2 days, the kill in % is determined. 100% means that all of the fleas have been killed; 0% means that none of the fleas have been killed.

[3] = test system: Aphis gossypii; assay: Aphis gossypii contact test (APHIGO c); type: in vivo; details: 2.4 g/ha, 7 dat
Experimental: Aphis gossypii—Contact Test (APHIGO c)
(§1) Solvent: 7 parts by weight of dimethylformamide
(§2) Emulsifier: alkylaryl polyglycol ether
(§3) To produce an appropriate active ingredient formulation, 1 part by weight of active ingredient is dissolved using the stated parts by weight of solvent and made up with water containing an emulsifier concentration of 1000 ppm until the desired concentration is attained. To produce further test concentrations, the preparation is diluted with emulsifier-containing water. In the event that addition of ammonium salts or/and penetrants (rapeseed oil methyl ester) is required, these are each pipetted in a concentration of 1000 ppm after the finished formulation solution has been diluted.
One-leaved cotton plants (Gossypium hirsutum) heavily infested by the cotton aphid (Aphis gossypii) are treated by spraying the underside of the leaf with the active ingredient formulation in the desired concentration.
(§4) After the desired time, the kill in % is determined. 100% means that all the aphids have been killed and 0% means that none of the aphids have been killed.

[4] = test system: Aphis gossypii; assay: Aphis gossypii translaminar test (APHIGO t); type: in vivo; details: 2.4 g/ha, 7 dat
Experimental: Aphis gossypii—Translaminar Test (APHIGO t)
as §1, §2, §3
One-leaved cotton plants (Gossypium hirsutum) heavily infested by the cotton aphid (Aphis gossypii) are treated by spraying the top side of the leaf with the active ingredient formulation in the desired concentration.
as §4

[5] = test system: Nephotettix cincticeps; assay: Nephotettix cincticeps test (NEPHCI); type: in vivo; details: 0.16 ppm
Experimental: Nephotettix cincticeps Test (NEPHCI)
as §1, §2, §3
Rice plants (Oryza sativa, var. Balilla) are treated by spraying with the active ingredient formulation in the desired concentration and then populated with larvae of the green rice leafhopper (Nephotettix cincticeps).
After the desired time, the kill in % is determined. 100% means that all leafhoppers have been killed; 0% means that none of the leafhoppers have been killed.

In the case of `CCS(=O)(=O)c1cc(C(F)(F)F)cnc1-c1nc2cc(C(F)(F)F)ncc2n1C` [Example I-21], the LOGP_HCOOH ([1]; acidic range, pH 2.7, 0.1% aqueous formic acid/acetonitrile) is reported as 2.98, the LOGP_NEUTRAL ([1]; neutral range, pH 7.8, 0.001 molar aqueous ammonium hydrogencarbonate/acetonitrile) is reported as 2.93 and the “efficacy (kill)” value [2] is reported as 90%. For the same compound, the “% efficacy” value [3] was 98%, the “% efficacy” value [4] was 65% and the “% efficacy” value ([5]; 14 dat) was 90%. For the same compound, the “% efficacy” value ([5]; 21 dat) was 95% and the “% efficacy” value ([5]; 34 dat) was 100%.
